The numbers were not newly measured in US20120115828A1 (APEX LABORATORIES PRIVATE LIMITED, priority 2009, published 2012), which cites them from elsewhere.

The structures appear in SMILES notation.

Regarding `CC(=O)OCC(=O)[C@@]1(O)CC[C@H]2[C@@H]3CCC4=CC(=O)CC[C@]4(C)[C@H]3[C@@H](O)C[C@@]21C` [Hydrocortisone Acetate], the Solubility in chloroform entry is given as “slightly soluble” and the Solubility in water entry is “insoluble”. Moreover, where the note is “alcohol”, the Solubility in alcohol entry is recorded as “slightly soluble”.
For `Clc1ccc(COC(Cn2ccnc2)c2ccc(Cl)cc2Cl)c(Cl)c1` (centres unmarked) [Miconazole Nitrate, 1-[2-(2,4-Dichlorophenyl)-2-[(2,4-dichlorophenyl)methoxy]ethyl]-1H-imidazole], the Solubility in chloroform entry was “slightly soluble” and the Solubility in water entry is “very slightly soluble”. Besides, for the setting “ethanol (95%)”, the “Solubility in ethanol (95%)” value is given as “slightly soluble”. Besides, for the setting “ether”, the Solubility in ether result is on record as “very slightly soluble”. In addition, the Solubility in methanol entry (methanol) was “freely soluble”.
